{"source": "patent US8466291B2", "about": "“1,5-dideoxy-1,5-imino-D-glucitol compounds” (Academia Sinica, priority 2008, dated 2013)", "key": {"[1]": {"biological_target": "T1, human Hex B (FLAG-HexB) (Homo sapiens, UniProt P07686)", "T1 construct": "FLAG (N); expressed in transfected cells", "T1 sequence (P07686 122-556)": "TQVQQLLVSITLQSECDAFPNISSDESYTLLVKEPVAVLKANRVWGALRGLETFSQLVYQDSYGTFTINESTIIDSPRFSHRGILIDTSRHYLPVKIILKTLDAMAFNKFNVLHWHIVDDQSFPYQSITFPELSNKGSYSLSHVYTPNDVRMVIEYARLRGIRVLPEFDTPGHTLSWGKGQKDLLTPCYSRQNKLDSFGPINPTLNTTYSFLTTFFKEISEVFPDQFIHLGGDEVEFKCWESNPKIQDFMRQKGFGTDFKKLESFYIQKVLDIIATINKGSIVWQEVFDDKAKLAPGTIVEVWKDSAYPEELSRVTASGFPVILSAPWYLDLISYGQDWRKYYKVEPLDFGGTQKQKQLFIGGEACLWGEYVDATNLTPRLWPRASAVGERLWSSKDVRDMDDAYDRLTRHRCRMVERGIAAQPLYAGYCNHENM", "assay": "In situ immunostaining of Compound 5 and FLAG-HexB in 293T/FLAG-HexB cells", "format": "cell-based", "details": "confocal immunofluorescence, anti-FLAG and anti-biotin antibodies", "method": "(§1) A DNA fragment encoding human Hex B was amplified by PCR and cloned into pCMV-Tag 2B vector (Stratagene) to produce FLAG-tagged HexB expression plasmid (pFLAG-HexB). This plasmid was introduced into 293T cells to establish a cell line stably expressing FLAG-HexB. Briefly, 293T cells were maintained in Dulbecco's modified Eagle's medium (DMEM) supplemented with 10% (by volumn) heat inactivated fetal bovine serum (FBS), 2 mM glutamine, 100 units/mL penicillin and 100 μg/mL streptomycin at 37° C. in a 5% CO2 atmosphere. These cells were transfected with expression plasmid pFLAG-HexB and plasmid pBabe-puro (carrying a puromycin resistance gene) at a molar ratio of 30-40:1. 8 hours later, the transfected cells were fed with fresh medium and incubated for 16 h. These cells were then cultured in puromycin-containing (2 μg/mL) medium for 2-3 weeks to screen for puromycin-resistant clones.\nBinding of Compound 5 to HexB was first examined by in situ immunostaining as follows. 293T/FLAG-HexB cells were grown on glass coverslips in the presence of biotin-conjugated Compound 5 and fixed in 4% paraformaldehyde for 15 min. […]"}, "[2]": {"biological_target": "T1, human Hex B (FLAG-HexB)", "assay": "Immunoprecipitation / streptavidin pull-down and Western blot from 293T/FLAG-HexB cell lysate", "format": "binding", "details": "200 nM, room temperature 10 min", "method": "as §1\nBinding of Compound 5 to FLAG-HexB were further confirmed by immuno-precipitation and Westernblot assays. The 293T/FLAG-HexB cells were lysed with a lysis buffer containing 1% NP-40, 10 mM Tris-HCl at pH 7.4, 150 mM NaCl, 2 mM EDTA, 1 mM phenylmethylsulfonyl fluoride, and a proteinase inhibitor cocktail (Sigma), and the cell lysate was then incubated at room temperature for 10 min in the presence or absence of Compound 5 (200 nM). […]"}, "[3]": {"test_system": "BV2 cells (mouse microglia cells)", "assay": "GM2 ganglioside accumulation in BV2 microglia cells by Western blot", "format": "cell-based", "details": "different concentrations, 16 hr, Western blot with anti-Ganglioside asialo GM2 antibody", "method": "BV2 cells (mouse microglia cells) were cultured in DMEM for 24 hr in 60-mm tissue culture dishes. The cells were washed once with PBS (pH 7.4), and 2 mL of fresh medium with or without biotin conjugated Compound 5 (at different concentrations) was added to each dish. After being incubated in a 5% CO2 incubator at 37° C. for 16 hr, the BV2 cells were harvested, re-suspended in a solution containing PBS and 2×SDS lysis buffer (250 mM Tris, pH 6.8/4% SDS/20% glycerol/0.002% bromophenol blue/10% 2-mercaptoethanol) at a ratio of 1:1 to produce whole cell lysates. The cell lysates were boiled and then subjected to SDS-PAGE (15%) using a mini-gel apparatus (Biorad, Germany). Substances contained in the gel were transferred to a nitrocellulose membrane (Millipore) at 1 mA/cm^2 using a semidry blot system (Biorad, Germany). The membrane was blocked with a Tris-buffered saline (TBST) (50 mM Tris-HCl, pH 7.5; 150 mM NaCl; 0.1% Tween-20) containing 5% skim-milk and then blotted with an anti-Ganglioside asialo GM2 antibody and an anti-GAPDH antibody."}}, "data": [{"compound": "CC(=O)NC1CN(CCCCCCCNC(=O)CCCCC2SCC3NC(=O)NC32)C(CO)C(O)C1O", "note": "(stereo not drawn) [Compound 5]", "values": [{"measurement": "co-localization of FLAG-HexB and compound", "setting": "[1]", "value": "co-localized in the cytoplasm"}, {"measurement": "association of FLAG-HexB with compound (streptavidin-agarose beads)", "setting": "[2]", "value": "FLAG-HexB protein was attached to the streptavidin-agarose beads"}, {"measurement": "ganglioside GM2 accumulation", "setting": "[3]", "value": "accumulated in Compound 5-treated BV2 cells in a dose-dependent manner"}]}]}
